Each structure is given as a SMILES string.

The test system of the first experiment is YAP/TAZ-TEAD transcription. The experiment can be described thus: Reporter gene assay for measuring the inhibition of YAP/TAZ-TEAD transcription (TEAD-responsive element luciferase reporter in Hek293T cells). The class given is cell-based. The note with it: Hek293T cells transiently transfected with TEAD-responsive element luciferase reporter, 24 hours incubation. As to the method:
Hek293T cells are cultured in DMEM supplemented with 10% fetal bovine serum, Sodium pyruvate, Sodium bicarbonate, L-glutamine. The cells are harvested and transiently transfected with TEAD-responsive element luciferase reporter. Transfected cells are plated in 384-wells plate containing pre-diluted compounds. After 24 hours incubation at 37° C./5%CO2, assay plates were cooled down to RT and levelled to an equal volume per well, prior to the addition of 25 uL luciferase substrate SteadyLite (Perkin Elmer)/well. The plate was shaken for 10 min at 600 rpm, centrifuged for 1min at 500 rpm and measured with an Envision reader (PerkinElmer). The amount of relative light units produced by the TEAD reporter is used to calculated percent of inhibition.
The percent of reporter inhibition was calculated in the presence of a positive control inhibitor (100% inhibition) versus a condition with the presence of the vehicle basal activity of the reporter (0% inhibition). The ability of a test compound to inhibit this activity was determined as:
Percentage inhibition=[1-((RLU determined in the presence of vehicle—RLU determined for sample with test compound present) divided by (RLU determined in the presence of vehicle — RLU determined for sample with positive control inhibitor))] * 100
The activities of the example compounds tested are depicted in the table below. The activity ranges A, B and C refer to EC50 values in the reporter gene assay as described as follows: “A”: EC50 <1 μM; “B” : 1 μM≤EC50≤20 μM and “C” : EC50>20 μM, NT=not tested.
Background: In a reporter assay the amount or activity of a reporter protein is the signal.
For `C=CC(=O)NCC1CN(c2ccc(C(F)(F)F)cc2)c2ccnn2C1` (single isomer, unassigned) [Cpd. No. 002-En1, (R)- or (S)-N-((4-(4-(trifluoromethyl)phenyl)-4,5,6,7-tetrahydropyrazolo[1,5-a]pyrimidin-6-yl)methyl)acrylamide], the EC50 is less than 1000 nM.

`C=CC(=O)NCC1CN(c2ccc(C(F)(F)F)cc2)c2ccnn2C1` (single isomer, unassigned) [Cpd. No. 002-En2, (R)- or (S)-N-((4-(4-(trifluoromethyl)phenyl)-4,5,6,7-tetrahydropyrazolo[1,5-a]pyrimidin-6-yl)methyl)acrylamide] came in with an EC50 of less than 1000 nM.

As to `C=CC(=O)NCC1CN(c2cccc(F)c2)c2ccnn2C1` (single isomer, unassigned) [Cpd. No. 004-En1, (R)- or (S)-N-((4-(3-fluorophenyl)-4,5,6,7-tetrahydropyrazolo[1,5-a]pyrimidin-6-yl)methyl)acrylamide], the EC50 was in the range of 1000 to 20000 nM.

For the compound `C=CC(=O)NCC1CN(c2cccc(F)c2)c2ccnn2C1` (single isomer, unassigned) [Cpd. No. 004-En2, (R)- or (S)-N-((4-(3-fluorophenyl)-4,5,6,7-tetrahydropyrazolo[1,5-a]pyrimidin-6-yl)methyl)acrylamide], the EC50 was less than 1000 nM.

For `C=CC(=O)NCC1CN(c2ccc(Cl)cc2)c2ccnn2C1` (single isomer, unassigned) [Cpd. No. 005-En1, (R)- or (S)-N-((4-(4-chlorophenyl)-4,5,6,7-tetrahydropyrazolo[1,5-a]pyrimidin-6-yl)methyl)acrylamide], the EC50 was less than 1000 nM.

Compound `C=CC(=O)NCC1CN(c2ccc(Cl)cc2)c2ccnn2C1` (single isomer, unassigned) [Cpd. No. 005-En2, (R)- or (S)-N-((4-(4-chlorophenyl)-4,5,6,7-tetrahydropyrazolo[1,5-a]pyrimidin-6-yl)methyl)acrylamide] came in with an EC50 of less than 1000 nM.

The compound `C=CC(=O)NCC1CN(c2ccc(F)cc2)c2ccnn2C1` (single isomer, unassigned) [Cpd. No. 006-En1, (R)- or (S)-N-((4-(4-fluorophenyl)-4,5,6,7-tetrahydropyrazolo[1,5-a]pyrimidin-6-yl)methyl)acrylamide] gave an EC50 of 1000 to 20000 nM.

For `C=CC(=O)NCC1CN(c2ccc(F)cc2)c2ccnn2C1` (single isomer, unassigned) [Cpd. No. 006-En2, (R)- or (S)-N-((4-(4-fluorophenyl)-4,5,6,7-tetrahydropyrazolo[1,5-a]pyrimidin-6-yl)methyl)acrylamide], the EC50 is less than 1000 nM.

Regarding `C=CC(=O)NCC1CN(c2ccc(C(F)F)cc2)c2ccnn2C1` (single isomer, unassigned) [Cpd. No. 009-En1, (R)- or (S)-N-((4-(4-(difluoromethyl)phenyl)-4,5,6,7-tetrahydropyrazolo[1,5-a]pyrimidin-6-yl)methyl)acrylamide], the EC50 is 1000 to 20000 nM.

On to `C=CC(=O)NCC1CN(c2ccc(C(F)F)cc2)c2ccnn2C1` (single isomer, unassigned) [Cpd. No. 009-En2, (R)- or (S)-N-((4-(4-(difluoromethyl)phenyl)-4,5,6,7-tetrahydropyrazolo[1,5-a]pyrimidin-6-yl)methyl)acrylamide], for which the EC50 was less than 1000 nM.

`C=CC(=O)NCC1CN(c2ccc(C(F)F)nc2)c2ccnn2C1` (single isomer, unassigned) [Cpd. No. 010-En1, (R)- or (S)-N-((4-(6-(difluoromethyl)pyridin-3-yl)-4,5,6,7-tetrahydropyrazolo[1,5-a]pyrimidin-6-yl)methyl)acrylamide] had an EC50 greater than 20000 nM.

`C=CC(=O)NCC1CN(c2ccc(C(F)F)nc2)c2ccnn2C1` (single isomer, unassigned) [Cpd. No. 010-En2, (R)- or (S)-N-((4-(6-(difluoromethyl)pyridin-3-yl)-4,5,6,7-tetrahydropyrazolo[1,5-a]pyrimidin-6-yl)methyl)acrylamide] came in with an EC50 of less than 1000 nM.

For `C=CC(=O)NCC1CN(c2ccc(C(F)(F)F)c(F)c2)c2ccnn2C1` (single isomer, unassigned) [Cpd. No. 015-En1, (R)- or (S)-N-((4-(3-fluoro-4-(trifluoromethyl)phenyl)-4,5,6,7-tetrahydropyrazolo[1,5-a]pyrimidin-6-yl)methyl)acrylamide], the EC50 was less than 1000 nM.

As for `C=CC(=O)NCC1CN(c2ccc(C(F)(F)F)c(F)c2)c2ccnn2C1` (single isomer, unassigned) [Cpd. No. 015-En2, (R)- or (S)-N-((4-(3-fluoro-4-(trifluoromethyl)phenyl)-4,5,6,7-tetrahydropyrazolo[1,5-a]pyrimidin-6-yl)methyl)acrylamide], the EC50 was less than 1000 nM.

`C=CC(=O)NCC1CN(c2ccc(-c3ccccc3)cc2)c2ccnn2C1` (single isomer, unassigned) [Cpd. No. 017-En1, (R)- or (S)-N-((4-([1,1′-biphenyl]-4-yl)-4,5,6,7-tetrahydropyrazolo[1,5-a]pyrimidin-6-yl)methyl)acrylamide] displayed an EC50 greater than 20000 nM.

Compound `C=CC(=O)NCC1CN(c2ccc(-c3ccccc3)cc2)c2ccnn2C1` (single isomer, unassigned) [Cpd. No. 017-En2, (R)- or (S)-N-((4-([1,1′-biphenyl]-4-yl)-4,5,6,7-tetrahydropyrazolo[1,5-a]pyrimidin-6-yl)methyl)acrylamide] showed an EC50 of less than 1000 nM.

Compound `C=CC(=O)NCC1CN(c2ccn(C)c(=O)c2)c2ccnn2C1` (single isomer, unassigned) [Cpd. No. 024-En2, (R)- or (S)-N-((4-(1-methyl-2-oxo-1,2-dihydropyridin-4-yl)-4,5,6,7-tetrahydropyrazolo[1,5-a]pyrimidin-6-yl)methyl)acrylamide] displayed an EC50 greater than 20000 nM.

In the case of `C=CC(=O)NCC1CN(c2ccc3scnc3c2)c2ccnn2C1` (single isomer, unassigned) [Cpd. No. 026-En2, (R)- or (S)-N-((4-(benzo[d]thiazol-5-yl)-4,5,6,7-tetrahydropyrazolo[1,5-a]pyrimidin-6-yl)methyl)acrylamide], the EC50 lay within 1000 to 20000 nM.

Take `CCC(=O)NCC1CN(c2ccc(C(F)(F)F)cc2)c2ccnn2C1` (single isomer, unassigned) [Cpd. No. 028-En1, (R)- or (S)-N-((4-(4-(trifluoromethyl)phenyl)-4,5,6,7-tetrahydropyrazolo[1,5-a]pyrimidin-6-yl)methyl)propionamide]: the EC50 is greater than 20000 nM.

The compound `CCC(=O)NCC1CN(c2ccc(C(F)(F)F)cc2)c2ccnn2C1` (single isomer, unassigned) [Cpd. No. 028-En2, (R)- or (S)-N-((4-(4-(trifluoromethyl)phenyl)-4,5,6,7-tetrahydropyrazolo[1,5-a]pyrimidin-6-yl)methyl)propionamide] displayed an EC50 of less than 1000 nM.

Regarding `C=CC(=O)NCC1CN(c2ccc(C(F)(F)F)cc2)c2cc(C)nn2C1` (single isomer, unassigned) [Cpd. No. 029-En1, (R)- or (S)-N-((2-methyl-4-(4-(trifluoromethyl)phenyl)-4,5,6,7-tetrahydropyrazolo[1,5-a]pyrimidin-6-yl)methyl)acrylamide], the EC50 is less than 1000 nM.

`C=CC(=O)NCC1CN(c2ccc(C(F)(F)F)cc2)c2cc(C)nn2C1` (single isomer, unassigned) [Cpd. No. 029-En2, (R)- or (S)-N-((2-methyl-4-(4-(trifluoromethyl)phenyl)-4,5,6,7-tetrahydropyrazolo[1,5-a]pyrimidin-6-yl)methyl)acrylamide] came in with an EC50 of less than 1000 nM.

The compound `C=CC(=O)NCC1CN(c2ccc(OC(F)(F)F)cc2)c2cc(C)nn2C1` (single isomer, unassigned) [Cpd. No. 030-En1, (R)- or (S)-N-((2-methyl-4-(4-(trifluoromethoxy)phenyl)-4,5,6,7-tetrahydropyrazolo[1,5-a]pyrimidin-6-yl)methyl)acrylamide] came in with an EC50 of less than 1000 nM.

As for `C=CC(=O)NCC1CN(c2ccc(OC(F)(F)F)cc2)c2cc(C)nn2C1` (single isomer, unassigned) [Cpd. No. 030-En2, (R)- or (S)-N-((2-methyl-4-(4-(trifluoromethoxy)phenyl)-4,5,6,7-tetrahydropyrazolo[1,5-a]pyrimidin-6-yl)methyl)acrylamide], the EC50 is less than 1000 nM.

The experiment is the same for the next values; noted with them: Homo sapiens, HEK-293T, 24 h, Hek293T cells transiently transfected with TEAD-responsive element luciferase reporter, 24 hours incubation.
The compound `C=CC(=O)NCC1CN(c2ccc(Br)cc2)c2ccnn2C1` (single isomer, unassigned) [Cpd. No. 021-En1, (R)- or (S)-N-((4-(4-bromophenyl)-4,5,6,7-tetrahydropyrazolo[1,5-a]pyrimidin-6-yl)methyl)acrylamide] had an EC50 of less than 1000 nM.

`C=CC(=O)NCC1CN(c2ccn(C)c(=O)c2)c2ccnn2C1` (single isomer, unassigned) [Cpd. No. 024-En1, (R)- or (S)-N-((4-(1-methyl-2-oxo-1,2-dihydropyridin-4-yl)-4,5,6,7-tetrahydropyrazolo[1,5-a]pyrimidin-6-yl)methyl)acrylamide] had an EC50 greater than 20000 nM.

`C=CC(=O)NCC1CN(c2ccc3scnc3c2)c2ccnn2C1` (single isomer, unassigned) [Cpd. No. 026-En1, (R)- or (S)-N-((4-(benzo[d]thiazol-5-yl)-4,5,6,7-tetrahydropyrazolo[1,5-a]pyrimidin-6-yl)methyl)acrylamide] had an EC50 of 1000 to 20000 nM.

What is called EC50 is the concentration needed to bring the measured effect to its halfway point. A high value points to weaker potency.

Values taken from patent US20230279016A1, “Tetrahydropyrazolopyrimidines and Related Analogs for Inhibiting YAP/TAZ-TEAD” (THE KATHOLIEKE UNIVERSITEIT LEUVEN, priority 2021, published 2023).
